Experiments:
Dihydrofolate reductase = molecular target: T1, Dihydrofolate reductase (Homo sapiens, UniProt P00374)
T1 sequence (P00374 whole entry): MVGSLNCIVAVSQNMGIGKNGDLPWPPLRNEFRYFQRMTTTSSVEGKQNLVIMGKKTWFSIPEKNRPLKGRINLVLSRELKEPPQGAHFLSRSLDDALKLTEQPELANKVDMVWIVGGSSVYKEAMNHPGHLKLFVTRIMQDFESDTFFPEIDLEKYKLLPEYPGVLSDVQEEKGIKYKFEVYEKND
Description: Ability to inhibit purified Dihydrofolate reductase from human leukemic lymphoblasts was determined spectrophotometrically at 340 nM.

[1] = Ability to inhibit WI-L2 […] leukemia tumor cell growth in culture after 48 hr of its exposure.; type: functional, cell-based; settings: Homo sapiens, WIL2, 48 h
L1210 [2] = experiment: Ability to inhibit L1210 murine leukemia tumor cell growth in culture after 48 hr of its exposure.; type: functional, cell-based; settings: Mus musculus, L1210, 48 h
L1210 [3] = experiment: Ability to inhibit MTX-resistant L1210/R81 tumor cell growth was determined.; settings: Mus musculus

SMILES	IC50 (Dihydrofolate reductase) [nM]	IC50 [1] [nM]	IC50 (L1210 [2]) [nM]	IC50 (L1210 [3]) [nM]
C=C(CC(NC(=O)c1ccc(N(C)Cc2cnc3nc(N)nc(N)c3n2)cc1)C(=O)O)C(=O)O (stereo unspecified)	44	48	870	
CN(Cc1cnc2nc(N)nc(N)c2n1)c1ccc(C(=O)NC(CC(C#N)C(=O)O)C(=O)O)cc1 (stereo unspecified)	57		18	
C=C(CC(NC(=O)c1ccc(NCc2cnc3nc(N)nc(N)c3n2)cc1)C(=O)O)C(=O)O (stereo unspecified)	88	20	29	
Nc1nc(N)c2nc(CNc3ccc(C(=O)N[C@@H](CCC(=O)O)C(=O)O)cc3)cnc2n1 [AMINOPTERIN]		7.1		
CN(Cc1cnc2nc(N)nc(N)c2n1)c1ccc(C(=O)N[C@@H](CCC(=O)O)C(=O)O)cc1 [METHOTREXATE]		13		200000

Source: ChEMBL document CHEMBL1125723 (J Med Chem, 1991)
